Experimental data: article PMC12629513 (Nature, 2024)
Like-named read-outs stand apart in the source and are kept apart here.

Experiments:
VN1203-H5N1 = test: microbe, parasite or virus in culture; type: cell-based, A/Vietnam/1203/2004 (H5N1); conditions: read-out: IC50 of polymerase inhibitor
wild-type TX001-H5N1 = conditions: mouse
TX001-H5N1 wild-type = type: cell-based, A/dairy cattle/Texas/24–008749-001/2024 (H5N1)
[1] = target: VN1203-H5N1 neuraminidase (NA) (Influenza A virus, UniProt Q6DPL2); test: biochemical; set-up: species or system A/Vietnam/1203/2004 (H5N1)
[2] = target: TX001-H5N1 wild-type neuraminidase (NA) (Influenza A virus, UniProt D0G890); type: biochemical, A/dairy cattle/Texas/24–008749-001/2024 (H5N1)
[3] = read-out: IC50 of neuraminidase inhibitors

With `NC(=O)c1nc(F)c[nH]c1=O` [Favipiravir] the IC50 (VN1203-H5N1; Influenza A virus, H5N1, MDCK, 48 h) was 1.65 ± 0.15 mg/L, the “Effectiveness in vivo (body weight, survival, virus titres)” value (wild-type TX001-H5N1; po) was “highly effective” and the “Effectiveness of polymerase inhibitor in vitro” value (TX001-H5N1 wild-type) was “highly effective”.
With `CO[C@@H]([C@@H]1OC(C(=O)O)=C[C@H](NC(=N)N)[C@H]1NC(C)=O)[C@H](O)CO` [Laninamivir] the IC50 [1] was 0.41 ± 0.03 nM.
In the case of `CC(=O)N[C@H]1[C@H]([C@H](O)[C@H](O)CO)OC(C(=O)O)=C[C@@H]1N=C(N)N` [Zanamivir], the “Effect on body weight loss and death” value (wild-type TX001-H5N1; in vivo) is reported as “delayed body weight loss and death”, the “Effect on virus titres in lung, nasal turbinate and brain” value (wild-type TX001-H5N1; in vivo) is reported as “significantly reduced virus titres in lung, nasal turbinate and brain” and the Protection against lethality (wild-type TX001-H5N1; in vivo) is reported as “did not protect against lethality”. The “Antiviral sensitivity to NA inhibitor in vitro (interpretation)” value [2] was “sensitive”.
With `COC(=O)OCOc1c2n(ccc1=O)N([C@@H]1c3ccccc3SCc3c1ccc(F)c3F)[C@@H]1COCCN1C2=O` [baloxavir marboxil] the “Effectiveness in vivo (body weight, survival, virus titres)” value (wild-type TX001-H5N1; po) was “highly effective” and the “Effectiveness of polymerase inhibitor in vitro” value (TX001-H5N1 wild-type) was “highly effective”.
`O=C1c2c(O)c(=O)ccn2N([C@@H]2c3ccccc3SCc3c2ccc(F)c3F)[C@@H]2COCCN12` [Baloxavir acid] gave an IC50 (VN1203-H5N1) of 1.25 ± 0.75 nM and an IC50 (TX001-H5N1 wild-type; read-out: IC50 of polymerase inhibitor) of 0.61 ± 0.12 nM.
For `CCOC(=O)C1=C[C@@H](OC(CC)CC)[C@H](NC(C)=O)[C@@H](N)C1` [oseltamivir phosphate], the “Protection against body weight loss, viral replication in tissues, or survival” value (wild-type TX001-H5N1; in vivo, po) was “Minimal protection”.
`CCC(CC)[C@H](NC(C)=O)[C@@H]1[C@H](O)[C@@H](C(=O)O)C[C@H]1N=C(N)N` [Peramivir] gave an IC50 [1, 3] of 0.24 ± 0.03 nM and an IC50 [2, 3] of 0.195 ± 0.015 nM.
